Results reported in paper PMC9323974, “Palladium(II) Complexes of Substituted Salicylaldehydes: Synthesis, Characterization and Investigation of Their Biological Profile” (Pharmaceuticals, 2022).
Where two headings read alike, the source gives them in different places.

Experiments:
[1] = Reduction of hydrogen peroxide; conditions: compound 0.1 mM
Experimental: (§1) S1 Antioxidant biological assay
(§2) The antioxidant activity of the compounds was evaluated via their ability to scavenge in […]
(§3) vitro free radicals such as DPPH and ABTS and to reduce H2O2. […]
S1.3 Reduction of hydrogen peroxide
The ability of the compounds to reduce hydrogen peroxide (H2O2) was estimated according […]
to the method described in the literature [S2]. The reaction mixture contained 20 μL of each of the […]
tested compounds (0.1 mM) and 5 μL H 2O2 solution (40 mM) in phosphate buffer (50 mM, pH 7.4).
The absorbance was measured at 230 nm after 10 min. The antioxidant activity (reduction of […]

[2] = ABTS radical cation scavenging; conditions: compound 0.1 mM
Experimental: as §1, §2, §3
S1.2 Assay of radical cation ABTS–scavenging activity
The ABTS assay was performed to determine the activity of the compounds to scavenge the […]
radical cation ABTS. Initially, a water solution of ABTS was prepared (2 mM). ABTS radical cation […]
(ABTS+·) was produced by the reaction of ABTS stock solution with potassium persulfate (0.17 […]
mM) and the mixture was stored in the dark at room temperature for 12–16 h before its use. The […]
ABTS was oxidized incompletely because the stoichiometric reaction ratio of ABTS and potassium […]
persulfate is 1:0.5. The absorbance became maximal and stable only after more than 6 h of reaction […]
although the oxidation of the ABTS started immediately. The radical was stable in this form for […]
more than 2 days when allowed to stand in the dark at room temperature. Afterwards, the ABTS+· […]
solution was diluted in ethanol to an absorbance of 0.70 at 734 nm and 10 μL of diluted compounds or standards (0.1 mM) in DMSO were added. The absorbance was recorded out exactly 1 min after […]
initial mixing [S1]. The ABTS radical scavenging activity was expressed as the percentage inhibition of the absorbance of the initial ABTS solution (ABTS%). […]

HSA = target: T1, HSA (Homo sapiens, UniProt P02768); experiment: HSA fluorescence quenching; assay type: binding; conditions: for ΔΙ/Ιο (%) HSA fluorescence quenching: HSA 3 μM; for K HSA-binding constant: Scatchard; for relative HSA-fluorescence emission intensity, % of the initial: final value
T1 construct: purchased Sigma-Aldrich Co
Experimental: S4 Interaction with serum albumins
S4.1 Study of the affinity for serum albumins
The albumin–binding study for the compounds was carried out by fluorescence emission quenching experiments using BSA (3 μM) or HSA (3 μM) in buffer solution (15 mM trisodium citrate and 150 mM NaCl at pH 7.0). The tested compounds were used as quenchers with gradually increasing concentrations to monitor the quenching of the emission intensity of tryptophan residues of BSA at 345 nm or HSA at 340 nm [S6]. The fluorescence emission spectra were recorded between 300–500 nm with excitation wavelength of 295 nm. All the experiments were conducted at room temperature. The fluorescence spectra of the compounds were recorded under the same experimental conditions and presented a low–intensity emission band in the region 395–415 nm.
Consequently, the SA fluorescence emission spectra were modified properly, by subtracting the spectra of the compounds, and quantitative studies followed.
The extent of the inner–filter effect can be roughly estimated with the following formula: […]
where Icorr= corrected intensity, Imeas= the measured intensity, c = the concentration of the quencher, d = the cuvette length (1 cm), ε(λexc) and ε(λem) = the ε of the quencher at the excitation and the emission wavelength, respectively, as calculated from the UV –vis spectra of the complexes [S 8].
The interaction of the quencher (i.e. compounds) with serum albumins [S6] was studied through the Stern–Volmer and Scatchard equations [S6] and corresponding graphs. The values of the respective Stern–Volmer constant KSV (M–1), the quenching constant k q (M–1s–1), the SA– binding constant K (M–1) and the number of binding sites per albumin (n) were calculated.
According to Stern–Volmer quenching equation [S6] (eq. S2), where I 0 = the initial tryptophan fluorescence intensity of SA, I = the tryptophan fluorescence intensity of SA after the addition of the quencher, kq = the quenching rate constants of SA, K SV = the dynamic quenching constant, τ0 = the average lifetime of SA without the quencher, [Q] = the concentration of the quencher), the Stern –Volmer constant (KSV, M–1) can be obtained by the slope of the diagram I0/I versus [Q]. Taking τ0 = 10–8 s as fluorescence lifetime of tryptophan in SA [S2], the quenching constant (kq, M–1s–1) is calculated from equation S3.
From the Scatchard equation (eq. S5) [S6]: […]
(1 picture or pasted object on this page, not shown here) […]
where n = the number of binding sites per albumin and K = the SA–binding constant. The K constant (M−1) is calculated from the slope in plots (ΔI/I0)/[Q] versus (ΔI/I0) and n is given by the ratio of y intercept to the slope [S9]. […]

BSA = target: T2, BSA (Bos taurus, UniProt P02769); experiment: Competitive BSA-fluorescence studies with warfarin and ibuprofen; assay type: binding, bovine; conditions: for BSA drug site preference: drug site I (warfarin) vs II (ibuprofen)
T2 construct: purchased Sigma-Aldrich Co
Experimental: where n = the number of binding sites per albumin and K = the SA–binding constant. The K constant (M−1) is calculated from the slope in plots (ΔI/I0)/[Q] versus (ΔI/I0) and n is given by the ratio of y intercept to the slope [S9].
S4.2 Competitive SA–fluorescence studies with warfarin and ibuprofen
The competitive studies with warfarin or ibuprofen (site probes) [S10] were performed by tryptophan fluorescence quenching experiments using a fixed concentration of the BSA and site probes (3 μM) in buffer (containing 15 mM trisodium citrate and 150 mM NaCl at pH 7.0). The fluorescence emission spectra were recorded in the presence of increasing amounts of the compounds as quenchers with an excitation wavelength of 295 nm. The Scatchard equation (eq. 7) [S6] and plots were applied on the corrected SA–fluorescence emission spectra in order to determine the BSA–binding constant of the compounds in the presence of warfarin or ibuprofen.

[3] = read-out: BSA-binding constant K, Marker: Ibuprofen, ibuprofen 3 μM
[4] = read-out: BSA-binding constant K, Marker: Warfarin, warfarin 3 μM

T1 sequence (P02768 25-609): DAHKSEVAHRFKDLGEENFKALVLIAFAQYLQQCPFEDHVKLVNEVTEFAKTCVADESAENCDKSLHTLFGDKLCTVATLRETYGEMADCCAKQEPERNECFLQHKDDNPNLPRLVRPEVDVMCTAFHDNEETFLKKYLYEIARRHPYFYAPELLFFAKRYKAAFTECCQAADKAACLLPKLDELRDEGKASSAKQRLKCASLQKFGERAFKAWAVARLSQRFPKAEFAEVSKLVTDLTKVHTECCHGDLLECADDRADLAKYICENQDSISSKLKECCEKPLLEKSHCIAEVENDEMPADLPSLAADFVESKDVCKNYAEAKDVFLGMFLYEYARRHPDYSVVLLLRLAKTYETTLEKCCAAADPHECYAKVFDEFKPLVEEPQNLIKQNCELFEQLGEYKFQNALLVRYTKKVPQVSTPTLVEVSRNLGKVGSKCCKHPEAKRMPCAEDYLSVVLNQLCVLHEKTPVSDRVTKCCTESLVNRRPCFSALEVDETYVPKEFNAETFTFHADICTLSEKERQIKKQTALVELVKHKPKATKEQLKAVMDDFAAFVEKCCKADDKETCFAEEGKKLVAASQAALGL
T2 sequence (P02769 25-607): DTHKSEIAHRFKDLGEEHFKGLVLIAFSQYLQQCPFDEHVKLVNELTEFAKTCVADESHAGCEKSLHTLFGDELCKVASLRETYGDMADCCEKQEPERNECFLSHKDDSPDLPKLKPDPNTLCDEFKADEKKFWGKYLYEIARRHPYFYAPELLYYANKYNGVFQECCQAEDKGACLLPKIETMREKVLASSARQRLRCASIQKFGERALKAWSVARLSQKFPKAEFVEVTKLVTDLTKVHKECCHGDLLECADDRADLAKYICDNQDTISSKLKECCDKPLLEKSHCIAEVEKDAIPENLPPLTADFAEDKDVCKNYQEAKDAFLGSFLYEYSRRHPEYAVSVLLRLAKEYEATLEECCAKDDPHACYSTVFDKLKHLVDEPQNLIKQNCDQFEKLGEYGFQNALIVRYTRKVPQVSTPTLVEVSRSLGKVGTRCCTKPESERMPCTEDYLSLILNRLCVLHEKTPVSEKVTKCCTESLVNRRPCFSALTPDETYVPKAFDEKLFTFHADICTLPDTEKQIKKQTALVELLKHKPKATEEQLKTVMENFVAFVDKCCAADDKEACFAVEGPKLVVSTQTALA

SMILES	H2O2% [1]	ABTS% [2]	Kd (HSA)	kq HSA-quenching constant (HSA)	Kd (BSA)	Kd (BSA; [3])	Kd (BSA; [4])	ΔΙ/Ιο (%) HSA fluorescence quenching (HSA)	K HSA-binding constant (HSA)	relative HSA-fluorescence emission intensity, % of the initial (HSA)	BSA-binding constant K, Marker: Ibuprofen (BSA; ibuprofen 3 μM)	BSA-binding constant K, No Marker (BSA)	BSA-binding constant K, Marker: Warfarin (BSA; warfarin 3 μM)	BSA drug site preference (BSA)
CCN(CC)c1ccc(C=O)c(O)c1 [4-Et2N-saloH, 4-diethylamino-salicylaldehyde, reference compound]	76.57 ± 0.71%	25.84 ± 0.34%	2.48 µM	2.10 (±0.22) × 10^13 M^−1 s^−1	2.4 µM	20.6 µM	7.52 µM	–	–	–	–	–	–	–
COc1ccc(C=O)c(O)c1 [4-OMe-saloH, 4-methoxy-salicylaldehyde, reference compound]	94.24 ± 0.67%	40.83 ± 0.44%	10.3 µM	2.28 (±0.13) × 10^12 M^−1 s^−1	2.43 µM	12.7 µM	68.5 µM	–	–	–	–	–	–	–
O=Cc1cc(F)ccc1O [5-F-saloH, 5-fluoro-salicylaldehyde, reference compound]	71.84 ± 0.95%	19.57 ± 0.58%	21.5 µM	1.96 (±0.07) × 10^12 M^−1 s^−1	23.2 µM	21.7 µM	33.1 µM	–	–	–	–	–	–	–
CCN(CC)c1ccc(C=O)c([O][Pd][O]c2cc(N(CC)CC)ccc2C=O)c1 [Complex 1, [Pd(4-Et2N-salo)2]]	18.19 ± 0.29%	97.05 ± 0.48%	–	3.48 (±0.14) × 10^13 M^−1 s^−1	–	–	–	91.8%	1.25 (±0.06) × 10^5 M^−1	8.2%	8.94 (±0.63) × 10^4 M^−1	1.08 (±0.06) × 10^5 M^−1	9.34 (±0.60) × 10^4 M^−1	–
O=Cc1cc(Br)cc(Br)c1[O][Pd][O]c1c(Br)cc(Br)cc1C=O [Complex 2, [Pd(3,5-diBr-salo)2]]	49.21 ± 0.32%	50.46 ± 0.91%	–	4.22 (±0.13) × 10^13 M^−1 s^−1	–	–	–	88.8%	4.12 (±0.15) × 10^5 M^−1	11.2%	1.05 (±0.09) × 10^5 M^−1	1.50 (±0.06) × 10^6 M^−1	9.64 (±0.70) × 10^4 M^−1	–
O=Cc1cc(Cl)cc(Cl)c1[O-].O=Cc1cc(Cl)cc(Cl)c1[O-].[Pd+2] [Complex 3, [Pd(3,5-diCl-salo)2]]	51.26 ± 0.70%	63.45 ± 0.38%	–	5.00 (±0.12) × 10^13 M^−1 s^−1	–	–	–	90.4%	4.10 (±0.17) × 10^5 M^−1	9.6%	2.89 (±0.10) × 10^5 M^−1	7.82 (±0.24) × 10^5 M^−1	3.26 (±0.34) × 10^5 M^−1	–
O=Cc1cc(F)ccc1[O-].O=Cc1cc(F)ccc1[O-].[Pd+2] [Complex 4, [Pd(5-F-salo)2]]	48.31 ± 0.67%	63.30 ± 0.53%	–	1.82 (±0.06) × 10^13 M^−1 s^−1	–	–	–	75.7%	1.38 (±0.05) × 10^5 M^−1	24.3%	9.27 (±0.48) × 10^4 M^−1	8.79 (±0.13) × 10^4 M^−1	6.05 (±0.27) × 10^4 M^−1	drug site I
COc1ccc(C=O)c([O-])c1.COc1ccc(C=O)c([O-])c1.[Pd+2] [Complex 5, [Pd(4-OMe-salo)2]]	58.38 ± 0.54%	96.66 ± 0.46%	–	6.69 (±0.23) × 10^13 M^−1 s^−1	–	–	–	92.2%	3.56 (±0.12) × 10^5 M^−1	7.8%	6.52 (±0.46) × 10^4 M^−1	9.18 (±0.27) × 10^5 M^−1	1.46 (±0.14) × 10^5 M^−1	drug site II
